Source: patent US7572811B2, “Immunosuppressant compounds and compositions” (IRM LLC, priority 2004, dated 2009)
Like-named read-outs stand apart in the source and are kept apart here.

Key:
[1] = tested on: peripheral blood lymphocytes; experiment: Measurement of circulating lymphocytes (blood lymphocyte depletion); type: in vivo, Mice (C57bl/6 male); conditions: Mus musculus, mice, oral gavage, read-out: ED50 (effective dose for 50% blood lymphocyte depletion)
Description: C. In Vivo: Screening Assays for Measurement of Blood Lymphocyte Depletion and Assessment of Heart Effect
Measurement of circulating lymphocytes: Compounds are dissolved in DMSO and diluted to obtain a final concentration of 4% DMSO (v/v, final concentration) and then further diluted in a constant volume of Tween80 25%/H2O, v/v. Tween80 25%/H2O (200 μl), 4% DMSO, and FTY720 (10 μg) are included as negative and positive controls, respectively. Mice (C57bl/6 male, 6-10 week-old) are administered 250-300 μL of compound solution orally by gavages under short isoflurane anesthesia.
[…] Whole blood samples are subjected to hematology analysis. Peripheral lymphocyte counts are determined using an automated analyzer. Subpopulations of peripheral blood lymphocytes are stained by fluorochrome-conjugated specific antibodies and analyzed using a fluorescent activating cell sorter (Facscalibur). Two mice are used to assess the lymphocyte depletion activity of each compound screened. The result is an ED50, which is defined as the effective dose required displaying 50% of blood lymphocyte depletion.

human EDG-1 (S1P-1) = molecular target: T1, human EDG-1 (S1P-1) (Homo sapiens, UniProt P21453); experiment: EDG-1 (S1P1) GTP [γ-35S] binding SPA assay; type: biochemical; conditions: for EC50: GTP [γ-35S] binding, CHO cell membranes
T1 construct: c-myc (N); expressed in transfected cells; host or cells: CHO cell clones (membrane preparation)
T1 sequence (P21453 whole entry): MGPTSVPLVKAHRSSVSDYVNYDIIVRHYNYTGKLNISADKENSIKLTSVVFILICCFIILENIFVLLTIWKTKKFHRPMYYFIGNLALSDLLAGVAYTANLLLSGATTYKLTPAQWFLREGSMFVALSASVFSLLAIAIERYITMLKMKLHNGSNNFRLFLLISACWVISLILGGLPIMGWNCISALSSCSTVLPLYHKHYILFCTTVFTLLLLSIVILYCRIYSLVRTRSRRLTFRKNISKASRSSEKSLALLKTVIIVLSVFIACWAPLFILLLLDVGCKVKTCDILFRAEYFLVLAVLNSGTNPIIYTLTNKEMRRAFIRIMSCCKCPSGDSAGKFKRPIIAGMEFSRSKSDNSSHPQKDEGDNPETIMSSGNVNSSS
Description: (§1) A. In Vitro: A Scintillation Proximity Assay (SPA) for Measuring GTP [γ-^35S] Binding to Membranes Prepared from CHO Cells Expressing Human EDG/S1P Receptors
(§2) EDG-1 (S1P1) GTP [γ-^35S] binding assay: Membrane protein suspensions are prepared from CHO cell clones stably expressing a human EDG-1 N-terminal c-myc tag. Solutions of test compounds ranging from 10 mM to 0.01 nM are prepared in DMSO/50 mM HCl and then diluted into assay buffer (20 mM HEPES, pH7.4, 100 mM NaCl, 10 mM MgCl2, 0.1% fat free BSA). Assay buffer containing 10 mM GDP is mixed with wheat germ agglutinin-coated SPA-beads (1 mg/well) followed by the addition of human EDG-1 membrane protein suspension (10 μg/well) and test compound. The bead/membrane/compound assay components are then mixed for 10-15 minutes on a shaker at room temperature. GTP [γ-^35S] (200 pM) and bead/membrane/compound assay mixture are added to individual wells of a 96 well Optiplate™ (final volume 225 μl/well), sealed and incubated at room temperature for 110 to 120 minutes under constant shaking. After centrifugation (2000 rpm, 10 minutes) luminescence is measured with a TopCount™ instrument.
EC50 values are obtained by fitting the GTP [γ-^35S] binding curves (raw data) with the dose response curve-fitting tool of ORIGIN V. 6.1. Basal binding (no compound) and the highest stimulation of GTP [γ-^35S] binding achieved by an agonist are used as the fitting range. Seven different concentrations are used to generate a concentration response curve (using two or three data points per concentration).
Concentrations of EDG receptor expressing membranes range between 13-19 μg per well.

S1P-4 (EDG-6) = molecular target: T2, S1P-4 (EDG-6) (Homo sapiens, UniProt O95977); experiment: EDG-6 GTP [γ-35S] binding SPA assay; type: biochemical
T2 sequence (O95977 1-384): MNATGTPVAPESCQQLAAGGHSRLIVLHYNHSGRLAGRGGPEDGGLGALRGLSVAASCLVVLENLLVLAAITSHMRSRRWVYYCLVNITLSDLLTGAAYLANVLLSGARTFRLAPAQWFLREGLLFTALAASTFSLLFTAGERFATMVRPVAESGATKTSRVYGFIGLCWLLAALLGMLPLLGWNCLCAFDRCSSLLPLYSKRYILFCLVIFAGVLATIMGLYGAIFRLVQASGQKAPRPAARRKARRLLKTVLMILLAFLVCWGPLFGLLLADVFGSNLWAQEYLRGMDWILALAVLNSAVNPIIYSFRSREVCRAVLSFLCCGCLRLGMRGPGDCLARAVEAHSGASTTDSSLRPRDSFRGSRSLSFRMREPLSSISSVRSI
Description: as §1, §2
(§3) EC50 values are obtained by fitting the GTP [γ-^35S] binding curves (raw data) with the dose response curve-fitting tool of ORIGIN V. 6.1. […]

S1P-3 (EDG-3) = S1P-3 (EDG-3) (Homo sapiens, UniProt Q99500); experiment: EDG-3 GTP [γ-35S] binding SPA assay; type: biochemical
S1P-3 (EDG-3), sequence (Q99500 whole entry): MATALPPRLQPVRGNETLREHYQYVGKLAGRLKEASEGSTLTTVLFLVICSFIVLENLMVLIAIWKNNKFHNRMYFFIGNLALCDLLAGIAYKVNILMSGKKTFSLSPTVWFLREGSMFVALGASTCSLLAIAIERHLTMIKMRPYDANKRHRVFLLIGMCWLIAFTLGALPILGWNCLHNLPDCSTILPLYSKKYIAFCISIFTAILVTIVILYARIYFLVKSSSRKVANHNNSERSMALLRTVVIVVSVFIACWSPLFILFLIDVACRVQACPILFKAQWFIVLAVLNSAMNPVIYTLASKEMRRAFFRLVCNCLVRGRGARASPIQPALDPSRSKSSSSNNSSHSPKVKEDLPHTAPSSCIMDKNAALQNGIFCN
Description: as §1, §2, §3

S1P-5 (EDG-8) = molecular target: T3, S1P-5 (EDG-8) (Homo sapiens, UniProt Q9H228); experiment: EDG-8 GTP [γ-35S] binding SPA assay; type: biochemical
T3 construct: expressed in transfected cells; host or cells: RE7777 cells as printed (membrane preparation)
T3 sequence (Q9H228 whole entry): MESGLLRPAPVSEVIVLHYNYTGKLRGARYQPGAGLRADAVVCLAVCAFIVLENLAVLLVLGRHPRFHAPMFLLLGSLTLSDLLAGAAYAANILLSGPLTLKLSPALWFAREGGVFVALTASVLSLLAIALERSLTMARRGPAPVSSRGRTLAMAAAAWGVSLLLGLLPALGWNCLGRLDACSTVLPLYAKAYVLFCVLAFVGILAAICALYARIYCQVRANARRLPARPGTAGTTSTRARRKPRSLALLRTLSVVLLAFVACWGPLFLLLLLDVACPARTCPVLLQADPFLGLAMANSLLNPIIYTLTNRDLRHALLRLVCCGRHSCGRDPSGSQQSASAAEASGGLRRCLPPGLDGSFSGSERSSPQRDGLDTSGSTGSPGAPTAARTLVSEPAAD
Description: as §1, §2, §3

S1P-2 (EDG-5) = molecular target: T4, S1P-2 (EDG-5) (Homo sapiens, UniProt O95136); experiment: EDG-5 GTP [γ-35S] binding SPA assay; type: biochemical
T4 construct: expressed in transfected cells; host or cells: CHO cells (membrane preparation)
T4 sequence (O95136 whole entry): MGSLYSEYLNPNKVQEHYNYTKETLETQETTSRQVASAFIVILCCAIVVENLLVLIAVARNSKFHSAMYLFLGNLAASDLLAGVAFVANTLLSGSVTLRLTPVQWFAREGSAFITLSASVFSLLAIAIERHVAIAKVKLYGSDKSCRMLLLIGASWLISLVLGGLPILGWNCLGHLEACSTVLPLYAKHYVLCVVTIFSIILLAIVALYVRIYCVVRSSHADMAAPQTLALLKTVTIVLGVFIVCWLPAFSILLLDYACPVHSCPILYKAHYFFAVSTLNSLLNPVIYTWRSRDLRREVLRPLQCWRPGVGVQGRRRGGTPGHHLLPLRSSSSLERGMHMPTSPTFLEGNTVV
Description: as §1, §2, §3

SMILES | ED50 ([1]; time point not stated) [mg/kg] | EC50 (human EDG-1 (S1P-1)) [nM] | selectivity for S1P-1 compared to one or more of the other receptors (human EDG-1 (S1P-1); versus S1P-3, S1P-5, S1P-6 and S1P-8 as printed) | ED50 ([1]; at 6 hours) [mg/kg] | ED50 ([1]; at 48 hours) [mg/kg] | EC50 (S1P-4 (EDG-6)) [µM] | EC50 (S1P-3 (EDG-3)) [nM] | EC50 (S1P-5 (EDG-8)) [nM] | EC50 (S1P-2 (EDG-5)) [µM]
Cc1cc(OCc2ccc(C3CCN(CCC(=O)O)CC3)cc2)ccc1C1CCCCC1 [Example 1, 3-{4-[4-(4-Cyclohexyl-3-methyl-phenoxymethyl)-phenyl]-piperidin-1-yl}-propionic acid] | 0.1 | 0.22 | at least 1000 fold |  |  |  |  |  | 
Cc1cc(OCc2ccc(C3CCN(CCC(=O)O)CC3)cc2)ccc1-c1ccccc1 [Example 8, 3-{4-[4-(2-Methyl-biphenyl-4-yloxymethyl)-phenyl]-piperidin-1-yl}-propionic acid] |  | 2 |  | 0.2 | 0.8 | > 10 | 2000 | 370 | > 10
